US9695155B2, “Herbicidal substituted pyrimidinyloxy benzene compounds” (E. I. DU PONT DE NEMOURS AND COMPANY, priority 2013, dated 2017)

Assays:
[1] = test system: wheat; assay: Test A postemergence; format: in vivo, Triticum aestivum
Procedure, shortened: (§1)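 Visual 0–100 rating (100 = complete control) taken about 10 d post-treatment relative to untreated checks. Preemergence: directed soil spray on sown loam/sand pots. Postemergence: seedlings 2–10 cm, 1–2 leaf. Non-phytotoxic solvent formulation with surfactant.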

[2] = test system: pigweed; assay: Test A postemergence; format: in vivo, Amaranthus retroflexus
Procedure, shortened: as §1

[3] = test system: rice; assay: Test B flooded paddy test; format: in vivo, Oryza sativa; settings: Flood, 250 g ai/ha; 0 to 100 scale where 0 is no effect and 100 is complete control
Protocol: (§2) Plant species in the flooded paddy test selected from rice (Oryza sativa), sedge, umbrella (small-flower umbrella sedge, Cyperus difformis), (Heteranthera limosa), and barnyardgrass (Echinochloa crus-galli) were grown to the 2-leaf stage for testing. At time of treatment, test pots were flooded to 3 cm above the soil surface, treated by application of test compounds directly to the paddy water, and then maintained at that water depth for the duration of the test. Treated plants and controls were maintained in a greenhouse for 13 to 15 days, after which time all species were compared to controls and visually evaluated. Plant response ratings, summarized in Table B, are based on a scale of 0 to 100 where 0 is no effect and 100 is complete control. A dash (-) response means no test result.

[4] = test system: giant foxtail; assay: Test A preemergence; format: in vivo, Setaria faberii; settings: for Plant response rating, Foxtail, Giant: 125 g ai/ha, 0 to 100 scale where 0 is no effect and 100 is complete control; for Foxtail, Giant plant response rating: 500 g ai/ha, 0 to 100 scale, 0 no effect, 100 complete control, approx. 10 days
Procedure, shortened: as §1

[5] = test system: pigweed; assay: Test A preemergence; format: in vivo, Amaranthus retroflexus; settings: for Plant response rating, Pigweed: 125 g ai/ha, 0 to 100 scale where 0 is no effect and 100 is complete control; for Pigweed plant response rating: 500 g ai/ha, 0 to 100 scale, 0 no effect, 100 complete control, approx. 10 days
Text: (§3) Seeds of plant species selected from barnyardgrass (Echinochloa crus-galli), kochia (Kochia scoparia), ragweed (common ragweed, Ambrosia elatior), Italian ryegrass (Lolium multiflorum), large (Lg) crabgrass (Digitaria sanguinalis), giant foxtail (Setaria faberii), morningglory (Ipomoea spp.), pigweed (Amaranthus retroflexus), velvetleaf (Abutilon theophrasti), wheat (Triticum aestivum), and corn (Zea mays) were planted into a blend of loam soil and sand and treated preemergence with a directed soil spray using test chemicals formulated in a non-phytotoxic solvent mixture which included a surfactant.
(§4) At the same time, plants selected from these crop and weed species and also blackgrass (Alopecurus myosuroides), and galium (catchweed bedstraw, Galium aparine) were planted in pots containing the same blend of loam soil and sand and treated with postemergence applications of test chemicals formulated in the same manner. Plants ranged in height from 2 to 10 cm and were in the one- to two-leaf stage for the postemergence treatment. Treated plants and untreated controls were maintained in a greenhouse for approximately 10 days, after which time all treated plants were compared to untreated controls and visually evaluated for injury. Plant response ratings, summarized in Table A, are based on a 0 to 100 scale where 0 is no effect and 100 is complete control. A dash (-) response means no test result.

[6] = test system: Heteranthera limosa; assay: Test B flooded paddy test; format: in vivo; settings: Flood, 250 g ai/ha; 0 to 100 scale where 0 is no effect and 100 is complete control
Protocol: as §2

[7] = test system: large (Lg) crabgrass; assay: Test A preemergence; format: in vivo, Digitaria sanguinalis; settings: for Plant response rating, Crabgrass, Large: 125 g ai/ha, 0 to 100 scale where 0 is no effect and 100 is complete control; for Crabgrass, Large plant response rating: 500 g ai/ha, 0 to 100 scale, 0 no effect, 100 complete control, approx. 10 days
Procedure, shortened: as §1

[8] = test system: corn; assay: Test A preemergence; format: in vivo, Zea mays; settings: for Plant response rating, Corn: 125 g ai/ha, 0 to 100 scale where 0 is no effect and 100 is complete control; for Corn plant response rating: 500 g ai/ha, 0 to 100 scale, 0 no effect, 100 complete control, approx. 10 days
Text: as §3, §4

[9] = test system: sedge, umbrella; assay: Test B flooded paddy test; format: in vivo, Cyperus difformis; settings: Flood, 250 g ai/ha; 0 to 100 scale where 0 is no effect and 100 is complete control
Protocol: as §2

[10] = test system: barnyardgrass; assay: Test A postemergence; format: in vivo, Echinochloa crus-galli
Text: as §3, §4

[11] = test system: giant foxtail; assay: Test A postemergence; format: in vivo, Setaria faberii
Procedure, shortened: as §1

[12] = test system: corn; assay: Test A postemergence; format: in vivo, Zea mays
Procedure, shortened: as §1

[13] = test system: large (Lg) crabgrass; assay: Test A postemergence; format: in vivo, Digitaria sanguinalis
Procedure, shortened: as §1

[14] = test system: velvetleaf; assay: Test A preemergence; format: in vivo, Abutilon theophrasti; settings: for Plant response rating, Velvetleaf: 125 g ai/ha, 0 to 100 scale where 0 is no effect and 100 is complete control; for Velvetleaf plant response rating: 500 g ai/ha, 0 to 100 scale, 0 no effect, 100 complete control, approx. 10 days
Text: as §3, §4

[15] = test system: velvetleaf; assay: Test A postemergence; format: in vivo, Abutilon theophrasti
Procedure, shortened: as §1

[16] = test system: barnyardgrass; assay: Test B flooded paddy test; format: in vivo, Echinochloa crus-galli; settings: Flood, 250 g ai/ha; 0 to 100 scale where 0 is no effect and 100 is complete control
Protocol: as §2

[17] = test system: barnyardgrass; assay: Test A preemergence; format: in vivo, Echinochloa crus-galli; settings: for Plant response rating, Barnyardgrass: 125 g ai/ha, 0 to 100 scale where 0 is no effect and 100 is complete control; for Barnyardgrass plant response rating: 500 g ai/ha, 0 to 100 scale, 0 no effect, 100 complete control, approx. 10 days
Text: as §3, §4

[18] = test system: wheat; assay: Test A preemergence; format: in vivo, Triticum aestivum; settings: for Plant response rating, Wheat: 125 g ai/ha, 0 to 100 scale where 0 is no effect and 100 is complete control; for Wheat plant response rating: 500 g ai/ha, 0 to 100 scale, 0 no effect, 100 complete control, approx. 10 days
Procedure, shortened: as §1

[19] = test system: morningglory; assay: Test A preemergence; format: in vivo, Ipomoea spp.; settings: for Plant response rating, Morningglory: 125 g ai/ha, 0 to 100 scale where 0 is no effect and 100 is complete control; for Morningglory plant response rating: 500 g ai/ha, 0 to 100 scale, 0 no effect, 100 complete control, approx. 10 days
Procedure, shortened: as §1

[20] = 125 g ai/ha, 0 to 100 scale where 0 is no effect and 100 is complete control
[21] = 500 g ai/ha, 0 to 100 scale, 0 no effect, 100 complete control

SMILES | Plant response rating, Wheat [1, 20] | Plant response rating, Wheat [1, 21] | Plant response rating, Pigweed [2, 20] | Plant response rating, Pigweed [2, 21] | Plant response rating, Rice [3] | Plant response rating, Foxtail, Giant [4] | Foxtail, Giant plant response rating [4] | Plant response rating, Pigweed [5] | Pigweed plant response rating [5] | Plant response rating, Ducksalad [6] | Plant response rating, Crabgrass, Large [7] | Crabgrass, Large plant response rating [7] | Plant response rating, Corn [8] | Corn plant response rating [8] | Plant response rating, Sedge, Umbrella [9] | Plant response rating, Barnyardgrass [10, 20] | Plant response rating, Barnyardgrass [10, 21] | Plant response rating, Foxtail, Giant [11, 20] | Plant response rating, Foxtail, Giant [11, 21] | Plant response rating, Corn [12, 20] | also measured
Cc1ccn(-c2ccccc2Oc2ncc(Cl)cn2)n1 [Compound 36] | 0 | 0 | 0 | 20 | 0 | 0 | 20 | 0 | 20 | 0 | 0 | 70 | 0 | 0 | 0 | 0 | 0 | 0 | 0 | 0 | Plant response rating, Corn [12, 21]: 0; Plant response rating, Crabgrass, Large [13, 20]: 0; Plant response rating, Crabgrass, Large [13, 21]: 10; Plant response rating, Velvetleaf [14]: 0; Velvetleaf plant response rating [14]: 20; Plant response rating, Velvetleaf [15, 20]: 20; Plant response rating, Velvetleaf [15, 21]: 70; Plant response rating, Barnyardgrass [16]: 0; Plant response rating, Barnyardgrass [17]: 0; Barnyardgrass plant response rating [17]: 0; Plant response rating, Wheat [18]: 0; Wheat plant response rating [18]: 0
Cc1nn(-c2ccccc2Oc2ncc(Cl)cn2)cc1Cl [Compound 38] | 0 | 0 | 0 | 10 | 0 | 0 | 20 | 0 | 0 | 0 | 0 | 40 | 0 | 0 | 30 | 0 | 0 | 0 | 0 | 0 | Plant response rating, Corn [12, 21]: 0; Plant response rating, Crabgrass, Large [13, 20]: 0; Plant response rating, Crabgrass, Large [13, 21]: 10; Plant response rating, Velvetleaf [14]: 0; Velvetleaf plant response rating [14]: 10; Plant response rating, Velvetleaf [15, 20]: 10; Plant response rating, Velvetleaf [15, 21]: 20; Plant response rating, Morningglory [19]: 0; Morningglory plant response rating [19]: 0; Plant response rating, Barnyardgrass [16]: 0; Plant response rating, Barnyardgrass [17]: 0; Barnyardgrass plant response rating [17]: 0; Plant response rating, Wheat [18]: 0; Wheat plant response rating [18]: 0
Cc1nn(-c2ccccc2Oc2ncc(Cl)cn2)cc1Cl [Compound 39] | 0 | 0 | 10 | 40 | 0 | 10 | 50 | 0 | 0 | 50 | 10 | 90 | 0 | 0 | 30 | 0 | 0 | 0 | 0 | 0 | Plant response rating, Corn [12, 21]: 10; Plant response rating, Crabgrass, Large [13, 20]: 0; Plant response rating, Crabgrass, Large [13, 21]: 10; Plant response rating, Velvetleaf [14]: 10; Velvetleaf plant response rating [14]: 20; Plant response rating, Velvetleaf [15, 20]: 20; Plant response rating, Velvetleaf [15, 21]: 30; Plant response rating, Morningglory [19]: 0; Morningglory plant response rating [19]: 0; Plant response rating, Barnyardgrass [16]: 0; Plant response rating, Barnyardgrass [17]: 0; Barnyardgrass plant response rating [17]: 10; Plant response rating, Wheat [18]: 0; Wheat plant response rating [18]: 0
